Measured values: paper PMC6130562, “A phlorotannin constituent of Ecklonia cava alleviates postprandial hyperglycemia in diabetic mice” (Pharmaceutical Biology, 2017)

Tests used:
[1] = target: T1, α-amylase (porcine pancreatic amylase) (Sus scrofa, UniProt P00690); assay: chromogenic enzyme inhibition assay ([…] nm), commercial porcine pancreatic amylase; assay type: biochemical
T1 construct: gene AMY2
T1 sequence (P00690 16-511): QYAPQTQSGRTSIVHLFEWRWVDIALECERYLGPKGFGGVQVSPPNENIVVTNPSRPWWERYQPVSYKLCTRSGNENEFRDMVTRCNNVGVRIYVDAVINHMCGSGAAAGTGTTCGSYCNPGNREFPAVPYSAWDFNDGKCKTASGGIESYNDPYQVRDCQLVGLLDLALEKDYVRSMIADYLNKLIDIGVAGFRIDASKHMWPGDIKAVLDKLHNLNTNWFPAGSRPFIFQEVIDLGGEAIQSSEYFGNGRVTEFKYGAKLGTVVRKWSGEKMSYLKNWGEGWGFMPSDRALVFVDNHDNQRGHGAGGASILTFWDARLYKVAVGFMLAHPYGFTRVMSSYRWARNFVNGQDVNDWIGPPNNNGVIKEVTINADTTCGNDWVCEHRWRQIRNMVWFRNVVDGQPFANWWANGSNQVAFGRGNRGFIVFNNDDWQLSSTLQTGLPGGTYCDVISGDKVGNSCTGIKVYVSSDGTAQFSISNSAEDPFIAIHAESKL

α-glucosidase (yeast) = assay: chromogenic pNPG hydrolysis assay ([…] nm), commercial yeast enzyme; assay type: biochemical

IC50 [1]: 6.94 µM
IC50 (α-glucosidase (yeast)): 23.4 µM
SMILES: Oc1cc(O)cc(Oc2cc(O)c3c(c2-c2c(O)cc(O)c4c2Oc2c(O)cc(Oc5c(O)cc(O)cc5O)c(Oc5cc(O)cc(O)c5)c2O4)Oc2c(O)cc(O)c(Oc4cc(O)cc(O)c4)c2O3)c1 [2,7″-Phloroglucinol-6,6′-bieckol]
